Test results as given in patent publication US20070128217A1 (priority 2003, published 2007).

Columns and labels:
[1] = tested on: rabbit serum obtained by immunizing a rabbit with the SARS-CoV strain Frankfurt 1; format: binding; set-up: Binding of a rabbit serum to linear peptides / Binding of a rabbit serum to looped peptides / Rabbit serum linear peptides / Rabbit serum looped peptides / Binding of a rabbit serum to linear peptides of protein N of SARS-CoV Urbani (Rabbit serum linear peptides) / Binding of a rabbit serum to looped/cyclic peptides of protein N of SARS-CoV Urbani (Rabbit serum looped peptides): unit not given here
[2] = tested on: antibodies in sera from SARS patients (sera 1a, 1b, 2, 6, 37, 62, London, SARS-yellow, SARS-green); format: binding, human; set-up: Binding of serum 6 to linear peptides of protein X1 of SARS-CoV Urbani / Binding of serum 37 to linear peptides of protein X1 of SARS-CoV Urbani / Binding of serum 6 to looped/cyclic peptide (PEPSCAN-ELISA) / Binding of serum 37 to looped/cyclic peptide (PEPSCAN-ELISA) / Binding of serum 37 to looped/cyclic peptides of protein X1 of SARS-CoV Urbani / Binding of serum 6 to linear peptides of protein X2 / Binding of serum 37 to linear peptides of protein X2 / Binding of serum 37 to looped/cyclic peptides of protein X2 of SARS-CoV Urbani / Binding of serum 6 to linear peptides of protein M of SARS-CoV Urbani / Binding of serum 37 to linear peptides of protein M of SARS-CoV Urbani / Binding of serum 6 to looped/cyclic peptides of protein M of SARS-CoV Urbani / Binding of serum 37 to looped/cyclic peptides of protein M of SARS-CoV Urbani / Binding of serum 6 to linear peptides of protein X3 of SARS-CoV Urbani / Binding of serum 37 to linear peptides of protein X3 of SARS-CoV Urbani / Binding of serum 37 to looped/cyclic peptides of protein X3 of SARS-CoV Urbani / Binding of serum 6 to linear peptides of protein X4 of SARS-CoV Urbani / Binding of serum 37 to linear peptides of protein X4 of SARS-CoV Urbani / Binding of serum 37 to looped/cyclic peptides of protein X4 of SARS-CoV Urbani / Binding of serum 6 to linear peptides of protein X5 of SARS-CoV Urbani / Binding of serum 37 to linear peptides of protein X5 of SARS-CoV Urbani / Binding of serum 37 to looped/cyclic peptides of protein X5 of SARS-CoV Urbani / Binding of serum 6 to linear peptides of protein N of SARS-CoV Urbani / Binding of serum 37 to linear peptides of protein N of SARS-CoV Urbani / Binding of serum 6 to linear peptide (PEPSCAN-ELISA) / Binding of serum 1a to looped/cyclic peptides of protein N of SARS-CoV Urbani / Binding of serum 1b to looped/cyclic peptides of protein N of SARS-CoV Urbani / Binding of serum 2 to looped/cyclic peptides of protein N of SARS-CoV Urbani / Binding of serum 6 to looped/cyclic peptides of protein N of SARS-CoV Urbani / Binding of serum 37 to looped/cyclic peptides of protein N of SARS-CoV Urbani / Binding of serum 62 to looped/cyclic peptides of protein N of SARS-CoV Urbani / Binding of serum London to looped/cyclic peptides of protein N of SARS-CoV Urbani / Binding of serum SARS-green to looped/cyclic peptides of protein N of SARS-CoV Urbani: unit not given here
[3] = tested on: control sera (pooled serum of ten healthy LUMC hospital workers; commercial negative donor pooled serum from the Dutch bloodbank); format: binding, human; set-up: Binding of Control serum LUMC to linear peptides / Binding of Control serum Blood-bank to linear peptides / Binding of Control serum LUMC to looped peptides / Binding of Control Serum Blood-Bank to Looped peptides / Binding of Control serum LUMC to linear peptides of the protein M of SARS-CoV Urbani / Binding of Control serum Blood-bank to linear peptides of the protein M of SARS-CoV Urbani / Binding of Control serum LUMC to looped peptides of the protein M of SARS-CoV Urbani / Binding of Control Serum Blood-Bank to Looped peptides of the protein M of SARS-CoV Urbani: unit not given here

DSGFAAYNRYRIGNY
Rabbit serum linear peptides [1]: 0.2
Rabbit serum looped peptides [1]: 0.3
Binding of serum 1a to linear peptides of protein M of SARS-CoV Urbani [2]: 0.6
Binding of serum 1a to looped/cyclic peptides of protein M of SARS-CoV Urbani [2]: 0.8
Binding of serum 1b to linear peptides of protein M of SARS-CoV Urbani [2]: 0.4
Binding of serum 1b to looped/cyclic peptides of protein M of SARS-CoV Urbani [2]: 0.6
Binding of serum 2 to linear peptides of protein M of SARS-CoV Urbani [2]: 0.4
Binding of serum 2 to looped/cyclic peptides of protein M of SARS-CoV Urbani [2]: 0.6
Binding of serum 6 to linear peptides of protein M of SARS-CoV Urbani [2]: 0.5
Binding of serum 6 to looped/cyclic peptides of protein M of SARS-CoV Urbani [2]: 0.6
Binding of serum 37 to linear peptides of protein M of SARS-CoV Urbani [2]: 0.4
Binding of serum 37 to looped/cyclic peptides of protein M of SARS-CoV Urbani [2]: 0.7
Binding of serum 62 to linear peptides of protein M of SARS-CoV Urbani [2]: 0.4
Binding of serum 62 to looped/cyclic peptides of protein M of SARS-CoV Urbani [2]: 0.6
Binding of serum London to linear peptides of protein M of SARS-CoV Urbani [2]: 0.3
Binding of serum London to looped/cyclic peptides of protein M of SARS-CoV Urbani [2]: 0.2
Binding of serum SARS-green to linear peptides of protein M of SARS-CoV Urbani [2]: 0.3
Binding of serum SARS-green to looped/cyclic peptides of protein M of SARS-CoV Urbani [2]: 0.4
Binding of serum SARS-yellow to linear peptides of protein M of SARS-CoV Urbani [2]: 0.1
Binding of serum SARS-yellow to looped/cyclic peptides of protein M of SARS-CoV Urbani [2]: 0.8
Binding of Control Serum Blood-Bank to Looped peptides of the protein M of SARS-CoV Urbani [3]: 0.5
Binding of Control serum Blood-bank to linear peptides of the protein M of SARS-CoV Urbani [3]: 0.5
Binding of Control serum LUMC to linear peptides of the protein M of SARS-CoV Urbani [3]: 0.5
Binding of Control serum LUMC to looped peptides of the protein M of SARS-CoV Urbani [3]: 0.5

DTGIENATFFIFNKL
Binding of a rabbit serum to linear peptides [1]: 0.1
Binding of a rabbit serum to looped peptides [1]: 0.6
Binding of serum 1a to linear peptides of protein X1 of SARS-CoV Urbani [2]: 0.7
Binding of serum 1a to looped/cyclic peptides of protein X1 of SARS-CoV Urbani [2]: 0.6
Binding of serum 1b to linear peptides of protein X1 of SARS-CoV Urbani [2]: 0.5
Binding of serum 1b to looped/cyclic peptides of protein X1 of SARS-CoV Urbani [2]: 0.5
Binding of serum 2 to linear peptides of protein X1 of SARS-CoV Urbani [2]: 0.5
Binding of serum 2 to looped/cyclic peptides of protein X1 of SARS-CoV Urbani [2]: 0.6
Binding of serum 6 to linear peptides of protein X1 of SARS-CoV Urbani [2]: 0.4
Binding of serum 6 to looped/cyclic peptides of protein X1 of SARS-CoV Urbani [2]: 0.2
Binding of serum 37 to linear peptides of protein X1 of SARS-CoV Urbani [2]: 0.7
Binding of serum 37 to looped/cyclic peptides of protein X1 of SARS-CoV Urbani [2]: 0.7
Binding of serum 62 to linear peptides of protein X1 of SARS-CoV Urbani [2]: 0.6
Binding of serum 62 to looped/cyclic peptides of protein X1 of SARS-CoV Urbani [2]: 0.6
Binding of serum London to linear peptides of protein X1 of SARS-CoV Urbani [2]: 0.4
Binding of serum London to looped/cyclic peptides of protein X1 of SARS-CoV Urbani [2]: 0.2
Binding of serum SARS-green to linear peptides of protein X1 of SARS-CoV Urbani [2]: 0.3
Binding of serum SARS-green to looped/cyclic peptides of protein X1 of SARS-CoV Urbani [2]: 0.4
Binding of serum SARS-yellow to linear peptides of protein X1 of SARS-CoV Urbani [2]: 0.4
Binding of serum SARS-yellow to looped/cyclic peptides of protein X1 of SARS-CoV Urbani [2]: 0.6
Binding of Control Serum Blood-Bank to Looped peptides [3]: 0.7
Binding of Control serum Blood-bank to linear peptides [3]: 0.6
Binding of Control serum LUMC to linear peptides [3]: 0.5
Binding of Control serum LUMC to looped peptides [3]: 0.9

DVIISSIVRQLFKPL
Rabbit serum linear peptides [1]: 0.5
Rabbit serum looped peptides [1]: 0.2
Binding of serum 1a to linear peptides of protein X3 of SARS-CoV Urbani [2]: 0.7
Binding of serum 1a to looped/cyclic peptides of protein X3 of SARS-CoV Urbani [2]: 0.6
Binding of serum 1b to linear peptides of protein X3 of SARS-CoV Urbani [2]: 0.4
Binding of serum 1b to looped/cyclic peptides of protein X3 of SARS-CoV Urbani [2]: 0.2
Binding of serum 2 to linear peptides of protein X3 of SARS-CoV Urbani [2]: 0.5
Binding of serum 2 to looped/cyclic peptides of protein X3 of SARS-CoV Urbani [2]: 0.5
Binding of serum 6 to linear peptides of protein X3 of SARS-CoV Urbani [2]: 0.3
Binding of serum 6 to looped/cyclic peptides of protein X3 of SARS-CoV Urbani [2]: 0.6
Binding of serum 37 to linear peptides of protein X3 of SARS-CoV Urbani [2]: 0.6
Binding of serum 37 to looped/cyclic peptides of protein X3 of SARS-CoV Urbani [2]: 0.5
Binding of serum 62 to linear peptides of protein X3 of SARS-CoV Urbani [2]: 0.6
Binding of serum 62 to looped/cyclic peptides of protein X3 of SARS-CoV Urbani [2]: 0.4
Binding of serum London to linear peptides of protein X3 of SARS-CoV Urbani [2]: 0.6
Binding of serum London to looped/cyclic peptides of protein X3 of SARS-CoV Urbani [2]: 0.6
Binding of serum SARS-green to linear peptides of protein X3 of SARS-CoV Urbani [2]: 0.3
Binding of serum SARS-green to looped/cyclic peptides of protein X3 of SARS-CoV Urbani [2]: 0.4
Binding of serum SARS-yellow to linear peptides of protein X3 of SARS-CoV Urbani [2]: 0.2
Binding of serum SARS-yellow to looped/cyclic peptides of protein X3 of SARS-CoV Urbani [2]: 0.5
Binding of Control Serum Blood-Bank to Looped peptides of the protein X3 of SARS-CoV Urbani [3]: 0.5
Binding of Control serum Blood-bank to linear peptides of the protein X3 of SARS-CoV Urbani [3]: 0.6
Binding of Control serum LUMC to linear peptides of the protein X3 of SARS-CoV Urbani [3]: 0.4
Binding of Control serum LUMC to looped peptides of the protein X3 of SARS-CoV Urbani [3]: 0.5
